# According to patent US20250222063A1, “TOPICAL FORMULATION FOR USE IN THE TREATMENT OR PREVENTION OF DRY ITCHY SKIN” (MC2 THERAPEUTICS LTD, priority 2022, published 2025):
# Non-standard residues stand in square brackets, D forms with d. Residues, ends and D or L forms follow the SMILES beside them. Sar = CNCC(=O)O
# How the values were obtained:
# [1] = Aqueous stability in HBSS buffer at 40° C. (HPLC-UV); assay type: physicochemical; settings: 3% wt/wt or 0.4% wt/wt in HBSS buffer, glass vials, 40° C., HPLC-UV, in % (unit assumed)
# Procedure: An important aspect of formulating a stable topical product. Data in Table 4 below gives 1 month and 3 month stability data at 40° C. Compounds were dissolved at 3% wt/wt or 0.4% wt/wt (if 3% was not possible) in HBSS buffer and stored in glass vials at temperature. Samples were subsequently analyzed by HPLC-UV.
# [2] = tested on: bovine serum albumin (BSA); experiment: In vitro protein carbamylation assay (14C-potassium cyanate, scintillation counting); assay type: biochemical; settings: 10 mM nucleophile, 75 μM BSA, 25 μM 14C-Potassium Cyanate, 37° C., 72 hours, n=3
# Procedure: The tests were performed as described below. 200 μL of a 0.5% BSA solution, 200 μL of test solution and 100 μL of a 5 μCi/mL 14 C-Potassium Cyanate solution was mixed in an Eppendorf tube (corresponding to a final concentration of 75 μM BSA, 25 μM 14 C-Potassium Cyanate, and 10 mM nucleophile). Samples run in triplicates (n=3). The Eppendorf tubes were incubated at 37° C. for 72 hours.
# After incubation a volume of 100 μL of each sample was transferred to a new Eppendorf tube containing 100 μL of a 10% trichloroacetic acid (TCA) and kept at 4° C. overnight (for precipitation of BSA). Subsequently, the precipitated BSA was separated from the buffer by centrifugation (10000 rpm, 30 seconds). The supernatant was removed and the BSA pellet 10 was resuspended in 200 μL of a 10% solution of cold TCA (4° C.). The pellet was recovered by centrifugation (10000 rpm, 30 seconds) and supernatant was discarded. The BSA pellet was resuspended in 100 μL purified water (MilliQ) and transferred to a scintillation vial. The Eppendorf tube (previously containing the BSA pellet) was rinsed with an additional 100 μL purified water which al was transferred to the relevant scintillation vial.
# [3] = Skin homogenate study (degradation half-life, LC-MS/MS); assay type: in vitro ADME, human; settings: pooled human skin homogenate, 37° C., compound working solution 40 μg/mL mixed with equal volume of homogenate
# Procedure: To identify which of the dipeptides was readily subject to degradation by proteases and other cell processes in the skin, a number of compounds where tested in a skin homogenate study as described below and the results are listed in table 3.
# Dermatomed human skin from multiple skin donors was pooled, homogenized, and adjusted to a tissue concentration of 100 mg tissue per mL of homogenate. The homogenate was used immediately following preparation without any additional freeze/thaw cycles. Working solutions of each compound were prepared in Dulbecco's phosphate-buffered saline (DPBS) at 40 μg/mL. All solutions were pre-heated to 37° C. Equal volumes of skin homogenate and compound working solution were combined, mixed, held at 37° C., and sampled at 0, 15, 30, 60, 120, and 240 minutes. Samples were quenched with acidic acetonitrile, centrifuged, and prepared for LC-MS/MS analysis. Peak areas of each compound at each time-point were determined by LC-MS/MS.
# The individual half-life of each dipeptide was determined.
# The nature of the experiment should be considered indicative of the relative stability of each of the compounds rather than an absolute correlation to what would happen in vivo. The process of homogenizing the skin is likely to greatly accelerate the degradation. However, it is clear that there is substantial variation in the relative rates for each dipeptide. (See Table 3)
Structure (SMILES),1 month aqueous stability at 40° C. [1],3 month aqueous stability at 40° C. [1],Degree of carbamylation (% relative to HBSS control) [2],Half life in skin homogenate [3]
NCCC(=O)N[C@@H](Cc1c[nH]cn1)C(=O)O [Ala(b)-His (L-Carnosine)],98.4,99.7,72.63 % relative to HBSS control,
C[C@H](N)C(=O)N[C@@H](C)C(=O)O [Ala-Ala] (H-Ala-Ala-OH),,,,0.383 h
C[C@H](N)C(=O)N[C@H](C)C(=O)O [Ala-D-Ala] (H-Ala-[dA]-OH),,,,>8 h
C[C@@H](N)C(=O)NCC(=O)O [Ala-Gly (D)] (H-[dA]-Gly-OH),,,,>8 h
C[C@H](N)C(=O)NCC(=O)O [Ala-Gly] (H-Ala-Gly-OH),,,,1 h
"C[C@H](N)C(=O)O [Alanine, reference compound]",,,93.54 % relative to HBSS control,
"Cl.N=C(N)NCCC[C@H](N)C(=O)O [Arg*HCl, reference compound]",,,66.1 % relative to HBSS control,
"N=C(N)NCCC[C@H](N)C(=O)O [Arg, Arginine, reference compound]",,,52.4 % relative to HBSS control,
N[C@@H](CC(=O)O)C(=O)N[C@@H](Cc1ccccc1)C(=O)O [Asp-Phe] (H-Asp-Phe-OH),,,,1.28 h
COC(=O)[C@H](Cc1ccccc1)NC(=O)[C@@H](N)CC(=O)O [Aspartame] (H-Asp-Phe-OMe),,,30.4 % relative to HBSS control,
"CC(C)C[C@H](NC(=O)[C@@H](O)[C@H](N)Cc1ccccc1)C(=O)O [Bestatin, reference compound]",,,53.4 % relative to HBSS control,
"NC(=O)NCCC[C@H](N)C(=O)O [Citrulline, reference compound]",,,81.7 % relative to HBSS control,
"CN(CC(=O)O)C(=N)N [Creatine, reference compound]",,,103.92 % relative to HBSS control,
"NC(=O)CC[C@H](N)C(=O)O [Glutamine, reference compound]",,,74.39 % relative to HBSS control,
C[C@H](NC(=O)CN)C(=O)O [Gly-Ala] (H-Gly-Ala-OH),,,35.27 % relative to HBSS control,
NCC(=O)N[C@@H](CC(=O)O)C(=O)O [Gly-Asp] (H-Gly-Asp-OH),,,,>8 h
NCC(=O)N[C@@H](CCC(N)=O)C(=O)O [Gly-Gln] (H-Gly-Gln-OH),,,32.99 % relative to HBSS control,
NCC(=O)N[C@@H](CCC(=O)O)C(=O)O [Gly-Glu] (H-Gly-Glu-OH),99.0,99.7,,
NCC(=O)NCC(=O)O [Gly-Gly] (H-Gly-Gly-OH),,,,>8 h
NCC(=O)N[C@@H](Cc1cnc[nH]1)C(=O)O [Gly-His] (H-Gly-His-OH),99.8,79.3,22.6 % relative to HBSS control,>8 h
NCC(=O)N1CCC[C@H]1C(=O)O [Gly-Pro] (H-Gly-Pro-OH),,,,>8 h

Structure (SMILES),1 month aqueous stability at 40° C. [1],3 month aqueous stability at 40° C. [1],Degree of carbamylation (% relative to HBSS control) [2],Half life in skin homogenate [3]
CN(CC(=O)O)C(=O)CN [Gly-Sar] (H-Gly-[Sar]-OH),,,,>8 h
NCC(=O)NC(CO)C(=O)O (stereo not shown) [Gly-Ser],97.8,70.7,33.1 % relative to HBSS control,
CC(C)[C@H](NC(=O)CN)C(=O)O [Gly-Val] (H-Gly-Val-OH),,,,0.8 h
CC(C)C[C@H](NC(=O)[C@@H](N)Cc1cnc[nH]1)C(=O)O [His-leu] (H-His-Leu-OH),,,27.18 % relative to HBSS control,
"N[C@@H](Cc1c[nH]cn1)C(=O)O [Histidine, reference compound]",,,61.1 % relative to HBSS control,
CC[C@H](C)[C@H](N)C(=O)N1CCC[C@H]1C(=O)O [Ile-Pro] (H-Ile-Pro-OH),99.1,102.0,41.4 % relative to HBSS control,2.25 h
NCCCC[C@H](N)C(=O)N1CCC[C@H]1C(=O)O [Lys-Pro] (H-Lys-Pro-OH),,,28.6 % relative to HBSS control,0.867 h
"NCCCC[C@H](N)C(=O)O [Lysine, reference compound]",,,71.63 % relative to HBSS control,
NCCNCC(=O)O [N-β-aminoethyl-Gly],,,29.7 % relative to HBSS control,
O=C(O)[C@@H]1CCCN1C(=O)[C@@H]1CCCN1 [Pro-Pro] (H-Pro-Pro-OH),,,,1.93 h
O=C(O)[C@H](CO)NC(=O)[C@@H]1CCCN1 [Pro-Ser] (H-Pro-Ser-OH),78.1,49.0,41.9 % relative to HBSS control,4.73 h
N[C@@H](CO)C(=O)N1CCC[C@H]1C(=O)O [Ser-Pro] (H-Ser-Pro-OH),95.5,88.5,26.4 % relative to HBSS control,0.683 h
"NCCS(=O)(=O)O [Taurine, reference compound]",,,58.17 % relative to HBSS control,
NC(=O)CC(NC(=O)C(N)Cc1c[nH]c2ccccc12)C(=O)O (stereo not drawn) [Trp-Asn] (H-Trp-Asn-OH; configuration not given here),,,,0.75 h
N[C@@H](Cc1c[nH]c2ccccc12)C(=O)NCC(=O)O [Trp-Gly] (H-Trp-Gly-OH),,,,1.07 h
NC(Cc1c[nH]c2ccccc12)C(=O)N1CCCC1C(=O)O (stereo not shown) [Trp-Pro],,,,0.567 h
C[C@H](NC(=O)[C@@H](N)Cc1ccc(O)cc1)C(=O)O [Tyr-Ala],100.4,94.0,26.1 % relative to HBSS control,0.833 h
NC(N)=NCCC[C@H](NC(=O)[C@@H](N)Cc1ccc(O)cc1)C(=O)O [Tyr-Arg],,,25.96 % relative to HBSS control,
N[C@@H](Cc1ccc(O)cc1)C(=O)N1CCC[C@H]1C(=O)O [Tyr-Pro] (H-Tyr-Pro-OH),,,32.8 % relative to HBSS control,0.483 h
CC(C)[C@H](N)C(=O)N1CCC[C@H]1C(=O)O [Val-Pro] (H-Val-Pro-OH),90.5,80.9,22.1 % relative to HBSS control,0.65 h
CC(C)[C@H](N)C(=O)N[C@@H](Cc1ccc(O)cc1)C(=O)O [Val-Tyr] (H-Val-Tyr-OH),100.7,98.2,28.9 % relative to HBSS control,<0.125 h
